This note sets out measurements from patent publication US6420397B1, “Heteroaryl protease inhibitors and diagnostic imaging agents” (3-Dimensional Pharmaceuticals, Inc., priority 1999, dated 2002).

Molecules are shown by their SMILES. pKi: −log10 of the molar value.

The target in one assay is T1, Human α-thrombin (Homo sapiens, UniProt P00734).
T1 construct: Purified human α-thrombin was diluted into assay buffer; purchased Enzyme Research Laboratories (South Bend, Indiana)
Nature of the assay: In vitro inhibition of purified enzymes: thrombin Ki determination (p-nitroanilide substrate hydrolysis). Type of assay: biochemical. The following applies: substrate N-succinyl-Ala-Ala-Pro-Arg-p-nitroanilide, 37° C., pH 7.5. An excerpt: (§1) Reagents: All buffer salts were obtained from Sigma Chemical Company (St. Louis, Mo.), and were of the highest purity available. The enzyme substrate N-benzoyl-Ile-Glu-Gly-Arg-p-nitroanilide hydrochloride (Sigma B2291) was obtained from Sigma. N-succinyl-Ala-Ala-Pro-Arg-p-nitroanilide (BACHEM L-1720) was obtained from BACHEM (King of Prussia, Pa.). Human α-thrombin and human factor Xa were obtained from Enzyme Research Laboratories (South Bend, Indiana).
Ki Determinations: All assays are based on the ability of the test compound to inhibit the enzyme catalyzed hydrolysis of a peptide p-nitroanilide substrate. In a typical Ki determination, substrate is prepared in DMSO, and diluted into an assay buffer consisting of 50 mM HEPES, 200 mM NaCl, pH 7.5. The final concentrations for each of the substrates is listed below. In general, substrate concentrations are lower than the experimentally determined value for Km. Test compounds are prepared as a 1.0 mg/ml solution in DMSO. Dilutions are prepared in DMSO yielding 8 final concentrations encompassing a 200 fold concentration range. Enzyme solutions are prepared at the concentrations listed below in assay buffer.
(§2) In a typical Ki determnination, into each well of a 96 well plate is pipetted […] of substrate solution, […] of test compound solution, and the plate allowed to thermally equilibrate at 37° C. in a Molecular Devices plate reader for >15 minutes. Reactions were initiated by the addition of a […] aliquot of enzyme and the absorbance increase at 405 nm is recorded for 15 minutes. Data corresponding to less than 10% of the total substrate hydrolysis were used in the calculations. The ratio of the velocity (rate of change in absorbance as a function of time) for a sample containing no test compound is divided by the velocity of a sample containing test compound, and is plotted as a function of test compound concentration. The data are fit to a linear regression, and the value of the slope of the line calculated. The inverse of the slope is the experimentally determined Ki value.
Thrombin: Thrombin activity was assessed as the ability to hydrolyze the substrate N-succinyl-Ala-Ala-Pro-Arg-p-nitroanilide. Substrate solutions were prepared at a concentration of […] in assay buffer. Final DMSO concentration was 4.3%. Purified human α-thrombin was diluted into assay buffer to a concentration of 15 nM. Final reagent concentrations were: [thrombin]=0.5 nM, [substrate N-succinyl-Ala-Ala-Pro-Arg-p-nitroanilide]=32 mM.

For the next assay, the target named is T2, human factor Xa (Homo sapiens, UniProt P00742).
T2 construct: purchased Enzyme Research Laboratories (South Bend, Indiana)
Nature of the assay: In vitro inhibition of purified enzymes: Factor Xa (p-nitroanilide substrate hydrolysis). As to conditions: read-out: Factor Xa % inhibition @ conc. The assay is classed as biochemical.
Description: as §1
Ki Determinations: All assays are based on the ability of the test compound to inhibit the enzyme catalyzed hydrolysis of a peptide p-nitroanilide substrate. […] In general, substrate concentrations are lower than the experimentally determined value for Km. […]
as §2, with “Data corresponding to less than 10% of the total substrate hydrolysis were used in the calculations.” left out, “The data are fit to a linear regression, and the value of the slope of the line calculated. The inverse of the slope is the experimentally determined Ki value.” left out

T2 sequence (P00742 235-488 limits assumed): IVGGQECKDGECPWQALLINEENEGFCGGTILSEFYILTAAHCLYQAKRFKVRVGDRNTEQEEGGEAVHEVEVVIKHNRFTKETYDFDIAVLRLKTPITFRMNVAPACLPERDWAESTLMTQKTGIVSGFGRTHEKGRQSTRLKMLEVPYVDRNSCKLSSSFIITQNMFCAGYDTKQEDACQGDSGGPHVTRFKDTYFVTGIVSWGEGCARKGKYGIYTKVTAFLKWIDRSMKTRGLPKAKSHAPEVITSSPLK
T2 sequence (P00742 41-179 limits assumed): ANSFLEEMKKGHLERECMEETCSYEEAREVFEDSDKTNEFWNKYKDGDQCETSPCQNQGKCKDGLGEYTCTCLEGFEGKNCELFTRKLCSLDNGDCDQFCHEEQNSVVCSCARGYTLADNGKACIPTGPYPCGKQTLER

Take `Cc1ccc(NS(=O)(=O)Cc2ccccc2I)c(=O)n1CC(=O)N[C@@H](CCONC(=N)N)C(=O)c1nccs1` [Example 1, N-{(1S)-1-[2-(Amidinoaminooxy)ethyl]-2-oxo-2-(1,3-thiazol-2-yl)ethyl}-2-[3-({[(2-iodophenyl)methyl]sulfonyl}amino)-6-methyl-2-oxohydropyridyl]acetamide]: the pKi (usually the Ki on a negative log10 scale, so that one unit is a factor of ten) at Human α-thrombin is 7.85. For the same compound, the inhibition (commonly the percentage by which the read-out fell short of the control) at 20 µM at human factor Xa (@ 20 μM) was 16%.

Turning to `Cc1ccc(NS(=O)(=O)Cc2ccccc2I)c(=O)n1CC(=O)N[C@@H](CCONC(=N)N)C(=O)c1nc2ccccc2s1` [Example 2, N-{(1S)-1-[2-(Amidinoaminooxy)ethyl]-2-benzothiazol-2-yl-2-oxoethyl}-2-[3-({[(2-iodophenyl)methyl]sulfonyl}amino)-6-methyl-2-oxohydropyridyl]acetamide], the pKi on Human α-thrombin is 7.12. Besides, on human factor Xa (@ 13 μM), the inhibition at 13 µM was found to be 51%.

In the case of `Cc1ccc(NS(=O)(=O)c2cccc(I)c2)c(=O)n1CC(=O)N[C@@H](CCONC(=N)N)C(=O)c1nccs1` [Example 3, N-{(1S)-1-[2-(Amidinoaminooxy)ethyl]-2-oxo-2-(1,3-thiazol-2-yl)ethyl}-2-(3-{[(3-iodophettyl)sulfonyl]amino}-6-methyl-2-oxohydropyridyl)acetamide], the pKi at Human α-thrombin was 7.35.

Consider `Cc1ccc(NS(=O)(=O)c2cccc(I)c2)c(=O)n1CC(=O)N[C@@H](CCONC(=N)N)C(=O)c1nc2ccccc2s1` [Example 4, N-{(1S)-1-[2-(Amidinoaminooxy)ethyl]-2-benzothiazol-2-yl-2-oxoethyl}-2-(3-{[(3-iodopheityl)sulfonyl]amino}-6-methyl-2-oxohydropyridyl)acetamide], for which the pKi at Human α-thrombin was 7.77. Against the preceding compound, the pKi is 0.42 log units higher.
